Results published in PubChem BioAssay (NCI).
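Growth conditions: 96-well plates. Treatment: test compound, 48 hours, 5 concentrations. Analysis: linear interpolation between bracketing concentrations; unreached endpoints set to highest concentration. At the GI50, growth is halved. Definition used: TGI = concentration required for complete inhibition of growth.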

Assays:
Assay in all cases: NCI anticancer screen, dose series, 48 h
ACHN renal = test system: ACHN renal
HS 578T breast = test system: HS 578T breast
UO-31 renal = test system: UO-31 renal
LOX IMVI melanoma = test system: LOX IMVI melanoma
NCI-H226 lung = test system: NCI-H226 lung
HCT-15 colon = test system: HCT-15 colon
HOP-62 NSCLC = test system: HOP-62 NSCLC
KM12 colon = test system: KM12 colon
SNB-75 CNS = test system: SNB-75 CNS
NCI/ADR-RES ovarian = test system: NCI/ADR-RES ovarian
HT29 colon = test system: HT29 colon
SN12C renal = test system: SN12C renal
PC-3 prostate = test system: PC-3 prostate
SNB-19 CNS = test system: SNB-19 CNS
SK-MEL-5 melanoma = test system: SK-MEL-5 melanoma
SR leukemia = test system: SR leukemia
MOLT-4 leukemia = test system: MOLT-4 leukemia
EKVX NSCLC = test system: EKVX NSCLC
OVCAR-3 ovarian = test system: OVCAR-3 ovarian
TK-10 renal = test system: TK-10 renal
RPMI-8226 leukemia = test system: RPMI-8226 leukemia
SK-MEL-2 melanoma = test system: SK-MEL-2 melanoma
K-562 leukemia = test system: K-562 leukemia
786-0 renal = test system: 786-0 renal
SK-MEL-28 melanoma = test system: SK-MEL-28 melanoma
U251 CNS = test system: U251 CNS
A549 NSCLC = test system: A549 NSCLC
CAKI-1 renal = test system: CAKI-1 renal
M14 melanoma = test system: M14 melanoma
DU-145 prostate = test system: DU-145 prostate
SW-620 colon = test system: SW-620 colon
UACC-62 melanoma = test system: UACC-62 melanoma
OVCAR-4 ovarian = test system: OVCAR-4 ovarian
NCI-H23 lung = test system: NCI-H23 lung
MDA-MB-231 breast = test system: MDA-MB-231 breast
HL-60(TB) leukemia = test system: HL-60(TB) leukemia
RXF 393 renal = test system: RXF 393 renal
UACC-257 melanoma = test system: UACC-257 melanoma
MDA-MB-435 = test system: MDA-MB-435
COLO 205 colon = test system: COLO 205 colon
SF-268 CNS = test system: SF-268 CNS
NCI-H522 lung = test system: NCI-H522 lung
SF-295 CNS = test system: SF-295 CNS
OVCAR-5 ovarian = test system: OVCAR-5 ovarian
SF-539 CNS = test system: SF-539 CNS
HCT-116 colon = test system: HCT-116 colon
IGROV1 ovarian = test system: IGROV1 ovarian
BT-549 breast = test system: BT-549 breast
OVCAR-8 ovarian = test system: OVCAR-8 ovarian
MCF7 breast = test system: MCF7 breast
CCRF-CEM leukemia = test system: CCRF-CEM leukemia
MALME-3M melanoma = test system: MALME-3M melanoma
T-47D breast = test system: T-47D breast
NCI-H460 lung = test system: NCI-H460 lung
HCC-2998 colon = test system: HCC-2998 colon
HOP-92 NSCLC = test system: HOP-92 NSCLC
SK-OV-3 ovarian = test system: SK-OV-3 ovarian
A498 renal = test system: A498 renal

COc1ccc(C(C)=C(c2ccc(OCCN3CCCCCC3)cc2)c2ccc(OCCN3CCCCCC3)cc2)cc1
GI50 (ACHN renal): 2090 nM | TGI (ACHN renal): 4370 nM | GI50 (HS 578T breast): 1120 nM | TGI (HS 578T breast): 4560 nM | GI50 (UO-31 renal): 1780 nM | TGI (UO-31 renal): 3970 nM | GI50 (LOX IMVI melanoma): 177 nM | TGI (LOX IMVI melanoma): 427 nM | GI50 (NCI-H226 lung): 2320 nM | TGI (NCI-H226 lung): 5330 nM | GI50 (HCT-15 colon): 488 nM | TGI (HCT-15 colon): 1970 nM | GI50 (HOP-62 NSCLC): 1070 nM | TGI (HOP-62 NSCLC): 3490 nM | GI50 (KM12 colon): 1220 nM | TGI (KM12 colon): 4010 nM | GI50 (SNB-75 CNS): 2060 nM | TGI (SNB-75 CNS): 5230 nM | GI50 (NCI/ADR-RES ovarian): 2070 nM | TGI (NCI/ADR-RES ovarian): 4550 nM | GI50 (HT29 colon): 545 nM | TGI (HT29 colon): 2100 nM | GI50 (SN12C renal): 2090 nM | TGI (SN12C renal): 4800 nM | GI50 (PC-3 prostate): 1720 nM | TGI (PC-3 prostate): 4820 nM | GI50 (SNB-19 CNS): 1360 nM | TGI (SNB-19 CNS): 4020 nM | GI50 (SK-MEL-5 melanoma): 1310 nM | TGI (SK-MEL-5 melanoma): 3470 nM | GI50 (SR leukemia): 306 nM | TGI (SR leukemia): 773 nM | GI50 (MOLT-4 leukemia): 436 nM | TGI (MOLT-4 leukemia): 1290 nM | GI50 (EKVX NSCLC): 2340 nM | TGI (EKVX NSCLC): 7200 nM | GI50 (OVCAR-3 ovarian): 1870 nM | TGI (OVCAR-3 ovarian): 4070 nM | GI50 (TK-10 renal): 3120 nM | TGI (TK-10 renal): 6730 nM | GI50 (RPMI-8226 leukemia): 443 nM | TGI (RPMI-8226 leukemia): 1090 nM | GI50 (SK-MEL-2 melanoma): 2950 nM | TGI (SK-MEL-2 melanoma): 6340 nM | GI50 (K-562 leukemia): 338 nM | TGI (K-562 leukemia): 825 nM | GI50 (786-0 renal): 606 nM | TGI (786-0 renal): 1550 nM | GI50 (SK-MEL-28 melanoma): 312 nM | TGI (SK-MEL-28 melanoma): 593 nM | GI50 (U251 CNS): 524 nM | TGI (U251 CNS): 1830 nM | GI50 (A549 NSCLC): 1230 nM | TGI (A549 NSCLC): 3850 nM | GI50 (CAKI-1 renal): 1390 nM | TGI (CAKI-1 renal): 3730 nM | GI50 (M14 melanoma): 270 nM | TGI (M14 melanoma): 515 nM | GI50 (DU-145 prostate): 2280 nM | TGI (DU-145 prostate): 5730 nM | GI50 (SW-620 colon): 450 nM | TGI (SW-620 colon): 1480 nM | GI50 (UACC-62 melanoma): 869 nM | TGI (UACC-62 melanoma): 2050 nM | GI50 (OVCAR-4 ovarian): 2430 nM | TGI (OVCAR-4 ovarian): 5900 nM | GI50 (NCI-H23 lung): 2670 nM | TGI (NCI-H23 lung): 9520 nM | GI50 (MDA-MB-231 breast): 1360 nM | TGI (MDA-MB-231 breast): 3950 nM | GI50 (HL-60(TB) leukemia): 1020 nM | TGI (HL-60(TB) leukemia): 2320 nM | GI50 (RXF 393 renal): 646 nM | TGI (RXF 393 renal): 2560 nM | GI50 (UACC-257 melanoma): 587 nM | TGI (UACC-257 melanoma): 1590 nM | GI50 (MDA-MB-435): 422 nM | TGI (MDA-MB-435): 1170 nM | GI50 (COLO 205 colon): 375 nM | TGI (COLO 205 colon): 948 nM | GI50 (SF-268 CNS): 1710 nM | TGI (SF-268 CNS): 5070 nM | GI50 (NCI-H522 lung): 2650 nM | TGI (NCI-H522 lung): 6100 nM | GI50 (SF-295 CNS): 447 nM | TGI (SF-295 CNS): 1310 nM | GI50 (OVCAR-5 ovarian): 2440 nM | TGI (OVCAR-5 ovarian): 8260 nM | GI50 (SF-539 CNS): 1020 nM | TGI (SF-539 CNS): 2990 nM | GI50 (HCT-116 colon): 369 nM | TGI (HCT-116 colon): 1110 nM | GI50 (IGROV1 ovarian): 1870 nM | TGI (IGROV1 ovarian): 4280 nM | GI50 (BT-549 breast): 2030 nM | TGI (BT-549 breast): 4210 nM | GI50 (OVCAR-8 ovarian): 2620 nM | TGI (OVCAR-8 ovarian): 6820 nM | GI50 (MCF7 breast): 177 nM | TGI (MCF7 breast): 579 nM | GI50 (CCRF-CEM leukemia): 503 nM | TGI (CCRF-CEM leukemia): 4320 nM | GI50 (MALME-3M melanoma): 300 nM | TGI (MALME-3M melanoma): 616 nM | GI50 (T-47D breast): 628 nM | TGI (T-47D breast): 4550 nM | GI50 (NCI-H460 lung): 635 nM | TGI (NCI-H460 lung): 2180 nM | GI50 (HCC-2998 colon): 540 nM | TGI (HCC-2998 colon): 2000 nM | GI50 (HOP-92 NSCLC): 843 nM | TGI (HOP-92 NSCLC): 3890 nM | GI50 (SK-OV-3 ovarian): 2550 nM | TGI (SK-OV-3 ovarian): 5230 nM | GI50 (A498 renal): 2200 nM | TGI (A498 renal): 4410 nM
